Reference: patent EP3368527B1, “PALBOCICLIB TOSYLATE” (Egis Gyógyszergyár Zrt., priority 2015, dated 2017)
Like-named read-outs stand apart in the source and are kept apart here.

Experiments:
[1] = Dynamic vapour sorption analysis (DVS): water sorption isotherms, hygroscopicity; format: physicochemical; conditions: 25 °C
[2] = for Known contaminant 2: RT 1.97 min; for amount of "other unknown contaminants": change after 3 weeks of storage; for water absorption: under various storage conditions, compared to the isethionate salt
[3] = WO 2005/005426, in words; cited from earlier work
[4] = low relative humidity (10% RH); cited from earlier work
[5] = RT 1.70 min, 3 weeks, 25 °C 90% RH
[6] = RT 1.70 min, 3 weeks, 40 °C 70% RH
[7] = RT 2.56 min, 3 weeks, 25 °C 90% RH
[8] = RT 2.56 min, 3 weeks, 40 °C 70% RH

## palbociclib camsylate salt (1:1) [palbociclib camsylate (1:1) salt]
[1]
  hygroscopicity (water sorption isotherms): does not exhibit significant hygroscopicity

## palbociclib maleate (Form I) (1:1) salt
[1]
  hygroscopicity (water sorption isotherms): does not exhibit significant hygroscopicity

## palbociclib sulphate (C24H29N7O2 . ½ H2SO4 . 2 H2O) dihydrate salt
[1]
  hygroscopicity (water sorption isotherms): exhibits significant hygroscopicity

## palbociclib maleate (Form II) (1:1) salt
[1]
  hygroscopicity (water sorption isotherms): does not exhibit significant hygroscopicity

## CC(=O)c1c(C)c2cnc(Nc3ccc(N4CCNCC4)cn3)nc2n(C2CCCC2)c1=O.O=S(=O)(O)CCO [palbociclib isethionate Form B]
[2]; 3 weeks, 25 °C 90% RH
  Known contaminant 2 (RT 1.97 min): 0.09%
  Total contamination: 0.28%
  Total unknown contaminant: 0.19%
  Unknown contaminant (RT 1.70 min): 0.03%
  Unknown contaminant (RT 2.56 min): 0.16%
  Water content: 0.97% m/m%
[2]; 3 weeks, 40 °C 70% RH
  Known contaminant 2 (RT 1.97 min): 0.10%
  Total contamination: 0.27%
  Total unknown contaminant: 0.17%
  Unknown contaminant (RT 1.70 min): 0.03%
  Unknown contaminant (RT 2.56 min): 0.14%
  Water content: 0.76% m/m%
[2]; 3 weeks, 70 °C
  Known contaminant 2 (RT 1.97 min): 0.09%
  Total contamination: 0.28%
  Total unknown contaminant: 0.19%
  Unknown contaminant (RT 1.70 min): 0.03%
  Unknown contaminant (RT 2.56 min): 0.16%
  Water content: 0.83% m/m%
[2]; Starting sample
  Known contaminant 2 (RT 1.97 min): 0.09%
  Total contamination: 0.29%
  Total unknown contaminant: 0.20%
  Unknown contaminant (RT 1.36 min): 0.03%
  Unknown contaminant (RT 1.70 min): 0.03%
  Unknown contaminant (RT 2.56 min): 0.14%
  Water content: 0.36% m/m%

## palbociclib hydrogen chloride (1:1) salt Form E
[1]
  hygroscopicity (water sorption isotherms): does not exhibit significant hygroscopicity
[2]; 3 weeks of storage under various forced conditions, compared to palbociclib base Form A and isethionate salt Form B, in words
  stability: more stable than the Form A base
[2]; 3 weeks, 25 °C 90% RH
  Total contamination: 0.22%
  Total unknown contaminant: 0.16%
  Water content: 0.45% m/m%
  Known contaminant 2: 0.06%
[2]; 3 weeks, 40 °C 70% RH
  Total contamination: 0.19%
  Total unknown contaminant: 0.13%
  Water content: 0.41% m/m%
  Known contaminant 2: 0.06%
[2]; 3 weeks, 70 °C
  Total contamination: 0.23%
  Total unknown contaminant: 0.17%
  Water content: 0.42% m/m%
  Known contaminant 2: 0.06%
[2]; [5]
  Unknown contaminant: 0.06%
[2]; [6]
  Unknown contaminant: 0.06%
[2]; RT 1.70 min, 3 weeks, 70 °C
  Unknown contaminant: 0.06%
[2]; RT 1.70 min, Starting sample
  Unknown contaminant: 0.05%
[2]; Starting sample
  Known contaminant 2: 0.05%
  Total contamination: 0.20%
  Total unknown contaminant: 0.15%
  Water content: 0.21% m/m%
[2]; [7]
  Unknown contaminant: 0.10%
[2]; [8]
  Unknown contaminant: 0.07%
[2]; RT 2.56 min, 3 weeks, 70 °C
  Unknown contaminant: 0.11%
[2]; RT 2.56 min, Starting sample
  Unknown contaminant: 0.10%
[2]; in words
  amount of "other unknown contaminants": remains unchanged
  water absorption: significantly less water absorption

## CC(=O)c1c(C)c2cnc(Nc3ccc(N4CCNCC4)cn3)nc2n(C2CCCC2)c1=O [palbociclib base Form A, 6-acetyl-8-cyclopentyl-5-methyl-2-{[5-(1-piperazinyl)-2-piridinyl]amino}pyrido[2,3-d]pyrimidin-7(8H)-one]
[2]; 3 weeks, 25 °C 90% RH
  Known contaminant 1 (RT 1.85 min): 0.03%
  Known contaminant 2 (RT 1.97 min): 0.04%
  Total contamination: 0.23%
  Total unknown contaminant: 0.16%
  Unknown contaminant (RT 1.70 min): 0.04%
  Unknown contaminant (RT 2.56 min): 0.07%
  Unknown contaminant (RT 3.04 min): 0.05%
  Water content: 0.42% m/m%
[2]; 3 weeks, 40 °C 70% RH
  Known contaminant 2 (RT 1.97 min): 0.05%
  Total contamination: 0.17%
  Total unknown contaminant: 0.13%
  Unknown contaminant (RT 1.70 min): 0.05%
  Unknown contaminant (RT 2.56 min): 0.04%
  Unknown contaminant (RT 3.04 min): 0.04%
  Water content: 0.41% m/m%
[2]; 3 weeks, 70 °C
  Known contaminant 1 (RT 1.85 min): 0.03%
  Known contaminant 2 (RT 1.97 min): 0.05%
  Total contamination: 0.23%
  Total unknown contaminant: 0.15%
  Unknown contaminant (RT 1.70 min): 0.04%
  Unknown contaminant (RT 2.56 min): 0.06%
  Unknown contaminant (RT 3.04 min): 0.05%
  Water content: 0.39% m/m%
[2]; Starting sample
  Known contaminant 2 (RT 1.97 min): 0.04%
  Total contamination: 0.13%
  Total unknown contaminant: 0.09%
  Unknown contaminant (RT 1.70 min): 0.04%
  Unknown contaminant (RT 2.56 min): 0.05%
  Water content: 0.23% m/m%
[2]; in words
  amount of "other unknown contaminants": significantly increases

## palbociclib napsylate (1:2) dihydrate salt
[1]
  hygroscopicity (water sorption isotherms): exhibits significant hygroscopicity

## CC(=O)c1c(C)c2cnc(Nc3ccc(N4CCNCC4)cn3)nc2n(C2CCCC2)c1=O.Cl.Cl [palbociclib di-HCI salt]
[3]
  water solubility: suitable water solubility
[4]
  amount of water absorbed: > 2 m/m %

## palbociclib tosylate (1:1) salt
[1]; listed as palbociclib 4-toluenesulfonic acid (1:1) salt
  hygroscopicity (water sorption isotherms): does not exhibit significant hygroscopicity
[1]; listed as palbociclib tosylate salt form
  hygroscopicity (water sorption isotherms): surprisingly low hygroscopicity
[2]; 3 weeks, 25 °C 90% RH
  Total contamination: 0.09%
  Total unknown contaminant: 0.09%
  Water content: 0.51% m/m%
[2]; 3 weeks, 40 °C 70% RH
  Total contamination: 0.09%
  Total unknown contaminant: 0.09%
  Water content: 0.49% m/m%
[2]; 3 weeks, 70 °C
  Total contamination: 0.10%
  Total unknown contaminant: 0.10%
  Water content: 0.49% m/m%
[2]; [5]
  Unknown contaminant: 0.04%
[2]; [6]
  Unknown contaminant: 0.05%
[2]; RT 1.70 min, 3 weeks, 70 °C
  Unknown contaminant: 0.05%
[2]; RT 1.70 min, Starting sample
  Unknown contaminant: 0.04%
[2]; [7]
  Unknown contaminant: 0.05%
[2]; [8]
  Unknown contaminant: 0.04%
[2]; RT 2.56 min, 3 weeks, 70 °C
  Unknown contaminant: 0.05%
[2]; RT 2.56 min, Starting sample
  Unknown contaminant: 0.04%
[2]; Starting sample
  Total contamination: 0.08%
  Total unknown contaminant: 0.08%
  Water content: 0.34% m/m%
[2]; in words
  amount of "other unknown contaminants": remains unchanged
  water absorption: significantly less water absorption
0.1 M HCl (pH=1), 37 °C, 1440 min
  solubility: 20000 µg/mL
pH 4.5 (slightly acidic), 37 °C, compared to reference palbociclib base Form A, in words
  solubility: significantly better
pH 4.5 (slightly acidic), 37 °C, compared to reference palbociclib base Form A, in words, listed as palbociclib tosylate salt form
  solubility: significantly better solubility
pH=1, 37 °C, compared to reference palbociclib base Form A, in words
  solubility: comparable
pH=4.5 phosphate buffer, 37 °C, 1440 min
  solubility: 200 µg/mL
pH=6.8 phosphate buffer, 37 °C, 1440 min
  solubility: <30 µg/mL

## palbociclib citrate (1:1) monohydrate salt
[1]
  hygroscopicity (water sorption isotherms): exhibits significant hygroscopicity

## palbociclib oxalate (1:1) salt
[1]
  hygroscopicity (water sorption isotherms): does not exhibit significant hygroscopicity

## palbociclib napsylate (1:1) salt
[1]
  hygroscopicity (water sorption isotherms): does not exhibit significant hygroscopicity
